In US8232402B2, “Quinolinone farnesyl transferase inhibitors for the treatment of synucleinopathies and other indications” (Link Medicine Corporation, priority 2008, dated 2012):

What was measured:
[1] = target: recombinant farnesyl transferase (FTase) (Homo sapiens, UniProt P49354+P49356); assay: In vitro farnesyl transferase assay (fluorescent dansyl-pentapeptide); type: biochemical; details: in vitro and in vivo
Description: These neuroblastoma cells can be differentiated into dopaminergic cells and are useful for assessing the pathogenesis of Parkinson's disease (PD). […] Similar findings were found in vivo. […] IC50 values for various inventive compounds have been determined in in vitro assays using recombinant farnesyl transferase and a dansylated pentapeptide substrate. For a description of the assay used, see Cassidy et al., Methods Enzymol. 250:30-43, 1995, which is incorporated herein by reference. […] The compounds were also found to inhibit the farnesylation of Ras in cells treated with the test compound. IC50 values in vivo range from about 0.5 nM to about 25 μM.
Compounds were analyzed for inhibition of farnesyl transferase (FTase) activity using an established fluorescent peptide-based assay (Pompliano et al 1992 J. Am. Chem. Soc. 114:7945; U.S. Pat. No. 5,525,479, issued Jun. 11, 1996; each of which is incorporated herein by reference). In summary, a dansyl-pentapeptide (dGCVLS) (SEQ ID NO: 8) was incubated at […] with […] farnesyl pyrophosphate (FPP) and 25-50 nM FTase in 50 mM Tris-HC1/12 mM MgC12/[…]/6 mM DTT/0.2% octyl-D- -glucopyranoside/pH 7.0 at room temperature while the increase in fluorescence of the peptide at Ex =340 nm , Em =485 nm upon farnesyl addition was monitored continuously by a spectrofluorometer. […]

[2] = tested on: α-synuclein; assay: α-synuclein sandwich ELISA in brain fractions of α-synuclein transgenic mice; type: in vivo
Method: (§1) Farnesyl transferase inhibitors Zarnestra and OSI-754 were administered to mice of the α-synuclein transgenic line described in Masliah et al. (Masliah et al. “Dopaminergic loss and inclusion body formation in alpha-synuclein mice: implications for neurodegenerative disorders” Science 287(5456): 1265-69, 2000; incorporated herein by reference). Animals from this line have α-synuclein neuronal inclusions in the cortex, hippocampus, and the olfactory bulb (Masliah et al. “Dopaminergic loss and inclusion body formation in alpha-synuclein mice: implications for neurodegenerative disorders” Science 287(5456): 1265-69, 2000; incorporated herein by reference). Transgenic mice were orally administered either FTI in 20% cyclodextrin solution or the same volume of vehicle alone twice a day for 30 or 90 days. In some cases, non-transgenic mice also received vehicle twice a day for 30 to 90 days. At the end of treatment, mice were sacrificed, and the brains removed and hemisected. One hemisphere of each was fixed in 4% paraformaldehyde/PBS (pH 7.4), cryoperserved, then sectioned for histology. The other hemisphere was subdivided into four brain regions, including the cortex and hippocampus, that were homogenized and processed into cytoplasmic and membrane fractions.
Total α-synuclein levels were analyzed by a sandwich ELISA assay similar to one previously described (El-Agnaf et al. “Detection of oligomeric forms of alpha-synuclein protein in human plasma as a potential biomarker for Parkinson's disease” FASEB J. 20(3):419-25, 2006; incorporated herein by reference). In the cortex of vehicle treated animals, α-synuclein protein levels in the α-synuclein transgenic line are greater than in non-transgenic mice in both cytoplasmic (FIG. 10) and membrane fractions (FIG. 11). Transgenic mice that received Zarnestra had lower α-synuclein protein levels than vehicle-treated transgenic mice and nearly the same as that detected in the non-transgenic group in both the cytoplasmic (FIG. 10) and membrane fractions (FIG. 11), which represent soluble and insoluble α-synuclein, respectively. Farnesylated UCH-L1 in the cortex is contained in the membrane fraction. The amount of UCH-L1 was determined by quantitative Western Blot.

[3] = tested on: farnesylated UCH-L1; assay: Farnesylated UCH-L1 in cortex membrane fraction of α-synuclein transgenic mice (quantitative Western blot); type: in vivo; details: normalized to actin, 45 mg/kg twice a day, 30 days
Method: Farnesyl transferase inhibitors Zarnestra and OSI-754 were administered to mice of the α-synuclein transgenic line described in Masliah et al. (Masliah et al. “Dopaminergic loss and inclusion body formation in alpha-synuclein mice: implications for neurodegenerative disorders” Science 287(5456): 1265-69, 2000; incorporated herein by reference). Animals from this line have α-synuclein neuronal inclusions in the cortex, hippocampus, and the olfactory bulb (Masliah et al. “Dopaminergic loss and inclusion body formation in alpha-synuclein mice: implications for neurodegenerative disorders” Science 287(5456): 1265-69, 2000; incorporated herein by reference). […]
Total α-synuclein levels were analyzed by a sandwich ELISA assay similar to one previously described (El-Agnaf et al. “Detection of oligomeric forms of alpha-synuclein protein in human plasma as a potential biomarker for Parkinson's disease” FASEB J. 20(3):419-25, 2006; incorporated herein by reference). […] Transgenic mice that received Zarnestra had lower α-synuclein protein levels than vehicle-treated transgenic mice and nearly the same as that detected in the non-transgenic group in both the cytoplasmic (FIG. 10) and membrane fractions (FIG. 11), which represent soluble and insoluble α-synuclein, respectively. […] The amount of UCH-L1 was determined by quantitative Western Blot. […]

[4] = tested on: Neuronal Specific Nuclear Protein (NeuN); assay: NeuN staining of cortex and hippocampus of α-synuclein transgenic mice; type: in vivo; details: 90 days
[5] = tested on: α-synuclein inclusions; assay: Inclusion histology in α-synuclein transgenic mice (α-synuclein and ubiquitin immunostaining, Campbell-Switzer); type: in vivo; details: for α-synuclein-positive cells per mm^2 versus vehicle: cortex and hippocampus
Method: as §1
Formation of α-synuclein inclusions in the cortex and hippocampus was probed by immunostaining with an antibody for human α-synuclein. Cells positive for human α-synuclein were quantified. […] These regions were also analyzed for ubiquitin-immunoreactive inclusions and by the Campbell Switzer method of silver staining. Ubiquitin is known to be a constituent of Lewy bodies and in the α-synculein inclusions found in the transgenic mouse line used in the study (Masliah et al. “Dopaminergic loss and inclusion body formation in alpha-synuclein mice: implications for neurodegenerative disorders” Science 287(5456): 1265-69, 2000; incorporated herein by reference). […] Campbell-Switzer staining is a general marker of Lewy Body type inclusions (Uchihara et al. “Silver stainings distinguish Lewy bodies and glial cytoplasmic inclusions: comparison between Gallyas-Braak and Campbell-Switzer methods” Acta Neuropathol (Berl) 110(3):255-60, 2005; incorporated herein by reference).
Formation of α-synuclein inclusions in the cortex and hippocampus was probed by immunostaining with an antibody for human α-synuclein. Cells positive for human α-synuclein were quantified.

[6] = α-synuclein transgenic mice, summary, dose not given

For `C#Cc1cccc(-c2cc(=O)n(C)c3ccc(C(O)(c4ccc(Cl)cc4)c4cncn4C)cc23)c1` (stereo not drawn) [LNK-754], the “inhibition of the farnesylation of proteins and/or peptides” value [1] was “inhibit the farnesylation of proteins and/or peptides in vitro and in vivo”, the “levels of α-synuclein protein (ELISA)” value ([2]; cortex and hippocampus, 9 mg/kg twice a day, 90 days) was “decreased levels of α-synuclein protein” and the “levels of α-synuclein protein (ELISA)” value ([2]; cortex and hippocampus, 45 mg/kg twice a day, 90 days) was “decreased levels of α-synuclein protein”. The “levels of α-synuclein protein (ELISA)” value ([2]; cortex, cytoplasmic and membrane fractions, 45 mg/kg twice a day, 30 days) was “decreased levels of α-synuclein protein”, the “levels of α-synuclein in the cortex” value [2, 6] was “decrease levels of α-synuclein in the cortex” and the “amount of farnesylated UCH-L1” value [3] was “decreased the amount of farnesylated UCH-L1”. The “neuronal morphology or density (NeuN staining)” value [4] was “did not affect neuronal morphology or density”, the inclusions versus vehicle ([5]; 9 mg/kg twice a day, 90 days) was “fewer inclusions” and the inclusions versus vehicle ([5]; 45 mg/kg twice a day, 90 days) was “fewer inclusions”. The “α-synuclein-positive cells per mm^2 versus vehicle” value ([5]; 9 mg/kg twice a day, 90 days) was “fewer α-synuclein-positive cells per mm^2”, the “α-synuclein-positive cells per mm^2 versus vehicle” value ([5]; 45 mg/kg twice a day, 90 days) was “fewer α-synuclein-positive cells per mm^2” and the inclusions versus vehicle [5, 6] was “fewer inclusions”.
